Data from patent US20240279221A1, “HETEROCYCLIC COMPOUNDS AND METHODS OF USE” (Schrödinger, Inc., priority 2021, published 2024).

How the values were obtained:
[1] = molecular target: SOS1:KRAS (G12C) interaction (Homo sapiens (Human), UniProt Q07889); assay: SOS1-KRas(G12C) FRET Assay; assay type: binding; details: 0.5 nM His10-SOS1 (res. 564-1049), 2.5 nM GST-KRAS (res. 1-169, G12C); read-out: SOS-KRas(G12C) FRET IC50
In short: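 Compounds were pre-incubated 15 min at 25° C with SOS1 (His10, res. 564-1049; 0.5 nM final) and anti-6His-XL665, then GST-KRAS G12C (res. 1-169; 2.5 nM final) with anti-GST-Eu(K) was added for 2 h at RT. The buffer was PBS, 0.1% BSA, 5 mM MgCl2, 100 mM KF, 5 mM DTT with 0.5% DMSO. The 665/615 nm signal was normalised to DMSO and no-SOS1 controls, and IC50 and Hill coefficient were fitted by non-linear regression.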

human SOS1 = human SOS1 (Homo sapiens (Human), UniProt Q07889); assay: Surface Plasmon Resonance (SPR) SOS1 Binding Assay; details: biotinylated SOS1 (res. 564-1049), 25° C., kinetic or steady state fit, read-out: KD for hSOS1
In short: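 Biotinylated human SOS1 (res. 564-1049, N-terminal Avi tag) captured on streptavidin chip to ~3,000 RU; 25° C., Tris buffer pH 8.0 with 1 mM MgCl2, 5% DMSO running buffer. Compound series (top 100, 50 or 0.5 μM) injected 60 s, dissociation 600 s; double-referenced KD from 1:1 kinetic or steady-state fit.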

Sequence of human SOS1 (Q07889 564-1049): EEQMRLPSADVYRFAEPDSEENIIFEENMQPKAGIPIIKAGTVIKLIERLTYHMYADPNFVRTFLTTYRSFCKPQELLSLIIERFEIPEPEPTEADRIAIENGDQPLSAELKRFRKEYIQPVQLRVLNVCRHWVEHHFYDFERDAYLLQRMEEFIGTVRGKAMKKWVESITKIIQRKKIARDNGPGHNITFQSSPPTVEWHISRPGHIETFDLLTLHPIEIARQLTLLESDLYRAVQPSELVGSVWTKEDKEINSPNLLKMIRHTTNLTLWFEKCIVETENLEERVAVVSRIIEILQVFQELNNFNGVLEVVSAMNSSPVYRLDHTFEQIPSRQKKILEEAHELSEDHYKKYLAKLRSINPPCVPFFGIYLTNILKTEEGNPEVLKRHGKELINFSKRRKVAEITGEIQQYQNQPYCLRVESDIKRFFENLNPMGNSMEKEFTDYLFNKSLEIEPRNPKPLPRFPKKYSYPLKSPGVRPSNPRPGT
Sequence of SOS1:KRAS (G12C) interaction (Q07889 564-1049, stated change not applied): as the sequence (Q07889 564-1049) above

IC50 [1]	Kd (human SOS1)	Structure (SMILES)
23.4 nM	10 nM	C[C@@H](Nc1nn(C)c(=O)c2cc(=O)n(C3CCOCC3)cc12)c1cccc(C(F)(F)[C@@H]2CCCO2)c1F (single isomer, unassigned) [Example 45]
350 nM	74 nM	Cc1c([C@@H](C)Nc2nn(C)c(=O)c3cc(=O)n(C4CCNCC4)cc23)cccc1C(F)(F)F [Example 22, (R)-2-methyl-4-((1-(2-methyl-3-(trifluoromethyl)phenyl)ethyl)amino)-6-(piperidin-4-yl)-2,6-dihydropyrido[3,4-d]pyridazine-1,7-dione]
89 nM	55 nM	COC1(C)CN(CCn2nc(N[C@H](C)c3cccc(C(F)(F)F)c3C)c3cn(C4CC4)c(=O)cc3c2=O)C1 [Example 78, (R)-6-cyclopropyl-2-(2-(3-methoxy-3-methylazetidin-1-yl)ethyl)-4-((1-(2-methyl-3-(trifluoromethyl)phenyl)ethyl)amino)-2,6-dihydropyrido[3,4-d]pyridazine-1,7-dione]
34.8 nM	10 nM	C[C@@H](Nc1nn(C)c(=O)c2cc(=O)n(C34CC(C(=O)N(C)C)(C3)C4)cc12)c1cccc(C(F)F)c1F [Example 69, (R)-3-(4-((1-(3-(difluoromethyl)-2-fluorophenyl)ethyl)amino)-2-methyl-1,7-dioxo-1,7-dihydropyrido[3,4-d]pyridazin-6(2H)-yl)-N,N-dimethylbicyclo[1.1.1]pentane-1-carboxamide]
76200 nM	3020 nM	Cc1cc([C@H](C)Nc2nn(C)c(=O)c3cc(=O)n(C4CC4)cc23)cc2c1c(C#N)nn2C (single isomer, unassigned) [Example 28]
69.8 nM	31 nM	C[C@@H](Nc1nn(C)c(=O)c2cc(=O)n(C3(C(F)(F)F)CC3)cc12)c1cccc(C(F)F)c1F [Example 71, (R)-4-((1-(3-(difluoromethyl)-2-fluorophenyl)ethyl)amino)-2-methyl-6-(1-(trifluoromethyl)cyclopropyl)-2,6-dihydropyrido[3,4-d]pyridazine-1,7-dione]
198 nM	40 nM	Cc1c([C@@H](C)Nc2nn(C)c(=O)c3cc(=O)n(C4(C)CC4)cc23)cccc1C(F)(F)F [Example 15, (R)-2-methyl-4-((1-(2-methyl-3-(trifluoromethyl)phenyl)ethyl)amino)-6-(1-methylcyclopropyl)-2,6-dihydropyrido[3,4-d]pyridazine-1,7-dione]
96.4 nM	22 nM	C[C@@H](Nc1nn(C)c(=O)c2cc(=O)n(C3CCOCC3)cc12)c1cccc(C(F)(F)F)c1 [Example 5, (R)-2-methyl-6-(tetrahydro-2H-pyran-4-yl)-4-((1-(3-(trifluoromethyl)phenyl)ethyl)amino)-2,6-dihydropyrido[3,4-d]pyridazine-1,7-dione]
47.3 nM	17 nM	C[C@@H](Nc1nn(C)c(=O)c2cc(=O)n(C3CC4(COC4)C3)cc12)c1cccc(C(F)F)c1F [Example 51, (R)-4-((1-(3-(difluoromethyl)-2-fluorophenyl)ethyl)amino)-2-methyl-6-(2-oxaspiro[3.3]heptan-6-yl)pyrido[3,4-d]pyridazine-1,7(2H,6H)-dione]
127 nM	73 nM	C[C@H](Nc1nn(C)c(=O)c2cc(=O)n([C@H]3C[C@@H](C#N)C3)cc12)c1cccc(C(F)F)c1F [Example 75, (1S,3s)-3-(4-(((R)-1-(3-(difluoromethyl)-2-fluorophenyl)ethyl)amino)-2-methyl-1,7-dioxo-1,7-dihydropyrido[3,4-d]pyridazin-6(2H)-yl)cyclobutane-1-carbonitrile]
1330 nM	290 nM	Cc1c([C@@H](C)Nc2nn(C)c(=O)c3c(N)c(=O)n(C4CC4)cc23)cccc1C(F)(F)F [Example 12, (R)-8-amino-6-cyclopropyl-2-methyl-4-((1-(2-methyl-3-(trifluoromethyl)phenyl)ethyl)amino)-2,6-dihydropyrido[3,4-d]pyridazine-1,7-dione]
30.3 nM	7 nM	C[C@@H](Nc1nn(C)c(=O)c2cc(=O)n([C@]3(C)CCOC3)cc12)c1cccc(C(F)F)c1F (single isomer, unassigned) [Example 53]
476 nM	51 nM	Cc1c([C@@H](C)Nc2nn(C)c(=O)c3c(OCC4CC4)c(=O)n(C4CC4)cc23)cccc1C(F)(F)F [Example 82, (R)-6-cyclopropyl-8-(cyclopropylmethoxy)-2-methyl-4-((1-(2-methyl-3-(trifluoromethyl)phenyl)ethyl)amino)-2,6-dihydropyrido[3,4-d]pyridazine-1,7-dione]
54.9 nM	34 nM	C[C@@H](Nc1nn(C)c(=O)c2cc(=O)n(C3CC3)cc12)c1cccc(C(F)(F)C(C)(C)O)c1F [Example 42, (R)-6-cyclopropyl-4-((1-(3-(1,1-difluoro-2-hydroxy-2-methylpropyl)-2-fluorophenyl)ethyl)amino)-2-methyl-2,6-dihydropyrido[3,4-d]pyridazine-1,7-dione]
1930 nM	530 nM	C[C@@H](Nc1nn(C)c(=O)c2cc(=O)n(C3CC3)cc12)c1cc(Br)cs1 [Example 56, (R)-4-((1-(4-bromothiophen-2-yl)ethyl)amino)-6-cyclopropyl-2-methyl-2,6-dihydropyrido[3,4-d]pyridazine-1,7-dione]
376 nM	134 nM	Cc1c([C@@H](C)Nc2nn(C)c(=O)c3c(OC(C)C)c(=O)n(C4CC4)cc23)cccc1C(F)(F)F [Example 81, (R)-6-cyclopropyl-8-isopropoxy-2-methyl-4-((1-(2-methyl-3-(trifluoromethyl)phenyl)ethyl)amino)-2,6-dihydropyrido[3,4-d]pyridazine-1,7-dione]
302 nM	303 nM	Cc1c([C@@H](C)Nc2nn(C)c(=O)c3c(N(C)C)c(=O)n(C4CC4)cc23)cccc1C(F)(F)F [Example 80, (R)-6-cyclopropyl-8-(dimethylamino)-2-methyl-4-((1-(2-methyl-3-(trifluoromethyl)phenyl)ethyl)amino)-2,6-dihydropyrido[3,4-d]pyridazine-1,7-dione]
129 nM	43 nM	COc1c(=O)n([C@H]2CCOC[C@@H]2F)cc2c(N[C@H](C)c3cccc(C(F)F)c3F)nn(C)c(=O)c12 (single isomer, unassigned) [Example 60]
24.6 nM	10 nM	C[C@@H](Nc1nn(C)c(=O)c2cc(=O)n(C3CCOCC3)cc12)c1cccc2c1CCC2(F)F [Example 67, (R)-4-((1-(1,1-difluoro-2,3-dihydro-1H-inden-4-yl)ethyl)amino)-2-methyl-6-(tetrahydro-2H-pyran-4-yl)pyrido[3,4-d]pyridazine-1,7(2H,6H)-dione]
60.8 nM	27 nM	COc1c(=O)n(C2(C(F)F)CC2)cc2c(N[C@H](C)c3cccc(C(F)F)c3F)nn(C)c(=O)c12 [Example 73, (R)-4-((1-(3-(difluoromethyl)-2-fluorophenyl)ethyl)amino)-6-(1-(difluoromethyl)cyclopropyl)-8-methoxy-2-methyl-2,6-dihydropyrido[3,4-d]pyridazine-1,7-dione]
